Test results reported in ChEMBL document CHEMBL5257142, “Targeted Degradation of KRASG12D as Potential Therapy in Cancer” (ACS Med Chem Lett, 2023).

Test system: GTPase KRas (Homo sapiens), P01116 [G12D]
Assay: Protac activity at VHL/KRAS G12D in human ASPC1 cells assessed as induction of KRAS G12D protein degradation at 1 uM incubated for 24 hrs by luminescence based analysis relative to control
Format: cell-based

Chain of GTPase KRas (Homo sapiens), P01116 [G12D] (P01116 whole entry G12D, looked up): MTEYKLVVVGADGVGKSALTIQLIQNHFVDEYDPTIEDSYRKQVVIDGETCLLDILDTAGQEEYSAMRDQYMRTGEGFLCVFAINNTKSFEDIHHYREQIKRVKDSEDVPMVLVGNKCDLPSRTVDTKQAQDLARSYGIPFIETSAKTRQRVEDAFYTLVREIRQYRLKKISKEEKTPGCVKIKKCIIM

Row | Structure (SMILES) | Activity
1 | Cc1ncsc1-c1ccc([C@H](C)NC(=O)[C@@H]2C[C@@H](O)CN2C(=O)[C@@H](NC(=O)CCOCCCN2CCC[C@H]2COc2nc(N3CC4CCC(C3)N4)c3cc(Cl)c(-c4ccc(F)c5sc(N)nc45)c(F)c3n2)C(C)(C)C)cc1 | 51.3%
2 | Cc1cc(N)nc(-c2c(Cl)cc3c(N4CC5CCC(C4)N5)nc(OC[C@@H]4CCCN4CCCOCCC(=O)N[C@H](C(=O)N4C[C@H](O)C[C@H]4C(=O)NCc4ccc(-c5scnc5C)cc4)C(C)(C)C)nc3c2F)c1C(F)(F)F | -0.69%
3 | Cc1cc(N)nc(-c2c(Cl)cc3c(N4CC5CCC(C4)N5)nc(OC[C@@H]4CCCN4CCCCCCCN4CCC(c5cc(F)cc6c5CN(C5CCC(=O)NC5=O)C6=O)CC4)nc3c2F)c1C(F)(F)F (stereo partly specified) | -22.9%
4 | Cc1cc(N)nc(-c2c(Cl)cc3c(N4CC5CCC(C4)N5)nc(OC[C@@H]4CCCN4CCCOCCC(=O)N[C@H](C(=O)N4C[C@H](O)C[C@H]4C(=O)N[C@@H](C)c4ccc(-c5scnc5C)cc4)C(C)(C)C)nc3c2F)c1C(F)(F)F | 29.3%
5 | Cc1ncsc1-c1ccc([C@H](C)NC(=O)[C@@H]2C[C@@H](O)CN2C(=O)[C@@H](NC(=O)CCCCN2CCC[C@H]2COc2nc(N3CC4CCC(C3)N4)c3cc(Cl)c(-c4ccc(F)c5sc(N)nc45)c(F)c3n2)C(C)(C)C)cc1 | 38.1%
6 | Cc1cc(N)nc(-c2c(Cl)cc3c(N4CC5CCC(C4)N5)nc(OC[C@@H]4CCCN4CCCOCCCOc4cc(-c5scnc5C)ccc4CNC(=O)[C@@H]4C[C@@H](O)CN4C(=O)[C@H](NC(=O)C4(F)CC4)C(C)(C)C)nc3c2F)c1C(F)(F)F | -5.46%
